In patent US12193465B2, “Materials and methods for extending shelf-life of foods” (JP Laboratories, Inc., priority 2021, dated 2025):

Experiments:
[1] = General shelf-life extension of foods (spoilage criteria of Example 9); settings: for Effectiveness for controlling one or more spoilage criteria: variety of foods
Method: All studies were conducted at a room temperature of about 25° C. To determine the effectiveness of a shelf-life extender, a control sample which was untreated with any shelf-life extenders, was tested identical to the test samples. […] All studies in those Examples of Tables 1-6 were conducted in closed plastic or glass containers. Containers, such as plastic containers, without or with lids having holes can be used if it is advantageous to let excess moisture escape or to prevent condensation of moisture released by some produce.
Food exposed to preservatives or by a sachet was placed in typically polystyrene or acrylic containers depending upon the size and number of food items. Glass jars and bottles were also used. The containers were snap-closed or with a lid. The containers were purchased mainly from Amazon or Webstaurant.com store. When needed, plastic containers with holes or without lids were used.
For controlled exposure and a constant supply of a preservative to foods, sachets containing one or more drops of preservatives were used. Sachets were made by placing an appropriate amount of a preservative in a plastic bag containing a piece of paper and heat sealing the bag. The sachet bag materials used were Tyvek® for solid preservative, polyethylene, polyester and high barrier multilayer films were used for liquid preservatives. These bags were sealed with a heat sealer. The sachet was typically applied on one side of the container containing food.
A piece of paper napkin was taped inside a 100 microns thick polyethylene or polyester Ziploc bag. The size of the bag varied from ˜20 cm×30 cm to ˜60 cm×90 cm depended on the sample with sandwich bags up to gallon bags being exemplary. The paper napkin was wetted with 0.1-0.5 ml of a preservative or a mixture of preservatives. A tray of aluminum, stainless steel or glass containing the foods was placed inside the plastic (polyethylene, polyester and multilayer-laminated) bag and almost closed by locking the Ziploc. Air was blown with an air blower from the unclosed end until the bag was fully blown and then quickly closed tightly by locking the remaining Ziploc. If a preservative was a sublimable solid, it was placed in a petri dish and then placed inside the bag in the tray before blowing air. The exposure time was varied from five minutes to a day depending upon the food. […] The assembly was shaken periodically. After the predetermined time, the tray containing produce was removed from the bag, allowed to de-gas for 10-30 minutes in air and the produce was then placed in an appropriately sized container. Glass and stainless steel containers with lids were also often used.
A solution of one or more preservatives was prepared in a large (e.g., 2-10 liter) glass beaker or a jar. A sack containing the food was prepared by placing the food in a plastic mesh bag. The sack was placed in the solution of the preservative. A smaller glass beaker containing proper amount of water was place over the package to keep the sack soaked in the solution of the preservative during the treatment. The solution was stirred either with a plastic spatula or with a magnet over a magnetic stirrer. After treatment, the mesh sack was removed, the produce was washed in a tray with running water, strained and air dried at 30° C. in an air blowing oven for about 5-10 minutes, while shaking the tray or turning the food periodically followed by placing the sample in an appropriate container.
The food was placed in mesh trays and sprayed with an aqueous solution (1-10%) of a preservative while shaking the tray or turning the food. The solution was allowed to drain from the tray and the food was air dried in an air blowing oven at 30° C. for about 5-10 minutes, while shaking the tray or turning food periodically followed by placing the sample in an appropriate container.

[2] = Curdling / cream / solidification of milk; settings: for Curdling of milk: pasteurized whole and fat-free milk;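 as to Curdling of milk: compared with untreated control milk in closed containers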;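 as to Curdling: compared with untreated control milk in closed containers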
Description: (§1) Most of the foods changed color or texture.

fungus = assay: Fungus growth on treated foods stored in closed containers at room temperature; settings: for Spoilage Time - Sample: Fungus;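 as to Effectiveness on ginger: compared with untreated control ginger in closed containers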
Description: as §1
Glass jars and bottles were also used. The containers were snap-closed or with a lid.
(§2) These bags were sealed with a heat sealer.
(§3) The assembly was shaken periodically.

[3] = test system: grains, legumes, potatoes, garlic; assay: Germination / sprouting of grains, legumes and tubers; settings: potatoes
Description: as §2, §3

For `CC12CCC(CC1=O)C2(C)C` (racemic) [(±)-camphor], the “Shelf-life of flowery vegetables” value [1] was “extended shelf-life”.
In the case of `COc1ccccc1B(O)O` [2-methoxyphenylboronic acid], the Curdling ([2]; raw cow milk and raw goat milk) is reported as “delayed curdling” and the “Effectiveness in extending freshness of cold press fresh juices” value (“Effectiveness in extending freshness” below) (fungus) is reported as “effective”.
In the case of `Cc1ccc2cccc(O)c2n1` [2-methyl-8-quinolinol], the “Effectiveness for controlling one or more spoilage criteria” value [1] is reported as “effective to a greater or lesser extent”.
With `Cc1ccccc1B(O)O` [2-methylphenylboronic acid] the Curdling of milk [2] was “delayed curdling”.
With `CC1CCCCC1=O` (centres unmarked) [2MC, 2-Methylcyclohexanone] the “Shelf-life of flowery vegetables” value [1] was “extended shelf-life”, the “Effectiveness for controlling one or more spoilage criteria” value [1] was “effective to a greater or lesser extent” and the Fungus growth (fungus; strawberries, raspberries, blackberries and lychee) was “either prevented or significantly delayed”.
In the case of `Cc1cc(C)cc(B(O)O)c1` [3,5-dimethylphenylboronic acid], the Curdling of milk [2] is reported as “delayed curdling”, the Curdling ([2]; raw cow milk and raw goat milk) is reported as “delayed curdling” and the “Effectiveness in extending freshness” value (fungus) is reported as “effective”.
With `OB(O)c1cccc(Cl)c1` [3-chlorophenylboronic acid, 3-Chlorophenylboronic acid] the Curdling ([2]; Example 135, fat-free milk) was “either prevented or significantly delayed”, the “Spoilage Time - Sample (Solid)” value ([2]; Pasteurized fat free milk, 0.05 g, control 3 days) was 14 days and the Curdling of milk [2] was “delayed curdling”. The Curdling ([2]; raw cow milk and raw goat milk) was “delayed curdling”, the “Effectiveness in extending freshness” value (fungus) was “effective” and the “Shelf-life of raw milk yogurt” value (fungus; raw milk yogurt) was “extended shelf-life”.
In the case of `COc1cccc(B(O)O)c1` [3-methoxyphenylboronic acid, 3-Methoxyphenylboronic acid], the Curdling of milk [2] is reported as “delayed curdling”, the Curdling ([2]; raw cow milk and raw goat milk) is reported as “delayed curdling” and the Fungus growth (fungus; 96 h) is reported as > 27 days. For the same molecule, the “Spoilage Time - Sample (Fungus)” value (fungus; Orange juice with peel, 0.02 g, control 4 days) was 27 days.
In the case of `COC(=O)c1ccc(B(O)O)cc1` [4-(methoxycarbonyl)phenylboronic acid], the Curdling of milk [2] is reported as “delayed curdling”, the Curdling ([2]; raw cow milk and raw goat milk) is reported as “delayed curdling” and the “Effectiveness in extending freshness” value (fungus) is reported as “effective”.
For `OB(O)c1ccc(-c2ccccc2)cc1` [4-biphenylboronic acid], the Curdling of milk [2] was “delayed curdling”, the Curdling ([2]; raw cow milk and raw goat milk) was “delayed curdling” and the “Effectiveness in extending freshness” value (fungus) was “effective”.
With `OB(O)c1ccc(Br)cc1` [4-bromophenylboronic acid, 4-Bromophenylboronic acid] the Curdling of milk [2] was “delayed curdling”, the Curdling ([2]; raw cow milk and raw goat milk) was “delayed curdling” and the Fungus growth (fungus; Example 134, raw milk yogurt, preservative added, control 3 days) was > 5 days. The “Spoilage Time - Sample (Fungus)” value (fungus; Raw milk yogurt, 0.10 g, control 3 days) was 5 days and the “Effectiveness in extending freshness” value (fungus) was “effective”.
In the case of `CC(=O)CC(C)(C)O` [4-hydroxy-4-methyl-2-pentanone], the “Effectiveness for controlling one or more spoilage criteria” value [1] is reported as “effective to a greater or lesser extent”.
In the case of `CC1CCC(=O)CC1` [4-methylcyclohexanone], the “Shelf-life of flowery vegetables” value [1] is reported as “extended shelf-life” and the “Effectiveness for controlling one or more spoilage criteria” value [1] is reported as “effective to a greater or lesser extent”.
With `CC(C)(C)c1ccc(B(O)O)cc1` [4-tert-butylphenylboronic acid, 4-tert-Butylphenylboronic acid] the Curdling of milk [2] was “delayed curdling”, the Curdling ([2]; raw cow milk and raw goat milk) was “delayed curdling” and the “Shelf-life of tomato juice” value (fungus; Example 133, fresh cold pressed tomato juice) was “improve shelf-life”. For the same molecule, the “Spoilage Time - Sample (Fungus)” value (fungus; Tomato juice, 0.20 g, control 4 days) was 27 days and the “Shelf-life of raw milk yogurt” value (fungus; raw milk yogurt) was “extended shelf-life”.
In the case of `N.NC(=O)O` [ACB, Ammonium carbaminate], the “Spoilage Time - Sample (Fungus)” value (fungus; Fresh, unshelled peanuts, Sachet, control 5 days) is reported as 45 days.
For `O=C1CCCCCC1` [CH, Cycloheptanone], the “Shelf-life of flowery vegetables” value [1] was “extended shelf-life”, the “Effectiveness for controlling one or more spoilage criteria” value [1] was “effective to a greater or lesser extent” and the “Spoilage Time - Sample” value (fungus; Example 91, Blueberry, Sachet, control 5 days) was 67 days.
In the case of `O=C1CCCC1` [CP, Cyclopentanone], the “Shelf-life of flowery vegetables” value [1] is reported as “extended shelf-life”, the “Effectiveness for controlling one or more spoilage criteria” value [1] is reported as “effective to a greater or lesser extent” and the “Spoilage Time - Sample” value (fungus; Example 115, Strawberry, Sachet, control 2 days) is reported as 5 days.
In the case of `CCN=C=S` [EI, ethyl isothiocyanate], the “Effectiveness at extending the shelf-life of potatoes” value (from here on “Effectiveness … of potatoes”) [3] is reported as “effective”, the “Spoilage Time - Sample” value ([2]; Example 84, Cream, Raw cow milk, 0.07 g, control 3 days) is reported as 24 days and the “Spoilage Time - Sample” value ([2]; Example 86, Solid, Pasteurized whole milk, 0.05 g, control 3 days) is reported as 14 days. For the same molecule, the “Spoilage Time - Sample” value ([2]; Example 86, Solid, Pasteurized whole milk, 0.05 g, control 3 days, listed as ethyl isothiocyanate) was “either prevented or significantly delayed”, the “Spoilage Time - Sample” value (fungus; Example 85, Tomato juice, 0.02 g, control 4 days) was 27 days and the “Spoilage Time - Sample” value (fungus; Example 85, Tomato juice, 0.02 g, control 4 days, listed as Ethyl isothiocyanate) was “improve shelf-life”. For the same molecule, the Effectiveness on ginger (fungus; ginger, pre-exposure and sachet method) was “found effective” and the “Shelf-life of raw milk yogurt” value (fungus; raw milk yogurt) was “extended shelf-life”.
For `CC1=CCCC1` [MCP, 1-Methylcyclopentene], the “Shelf-life of flowery vegetables” value [1] was “extended shelf-life”, the “Shelf-life of shelled and unshelled peanuts” value ([1]; peanuts) was “extended” and the “Effectiveness for controlling one or more spoilage criteria” value [1] was “effective to a greater or lesser extent”.
For `S=C=Nc1ccccc1` [PI, phenyl isothiocyanate], the “Effectiveness … of potatoes” value [3] was “effective”, the Curdling ([2]; raw cow milk and raw goat milk) was “delayed curdling” and the “Spoilage Time - Sample” value (fungus; Example 87, White pearl onions, Sachet, 100% relative humidity, control 8 days) was 48 days. The “Spoilage Time - Sample” value (fungus; Example 88, Yellow pearl onions, Sachet, 100% relative humidity, control 24 days) was 48 days and the “Effectiveness in extending freshness” value (fungus) was “effective”.
In the case of `N.N.N.O=P(O)(O)O` [ammonium phosphate], the “Effectiveness … of potatoes” value [3] is reported as “effective”.
In the case of `c1ccc(COCc2ccccc2)cc1` [benzyl ether, Benzyl Ether], the “Effectiveness for controlling one or more spoilage criteria” value [1] is reported as “effective to a greater or lesser extent”, the Fungus growth (fungus; Example 146, ginger, pre-exposed to vapor, control 12 days) is reported as > 37 days and the “Spoilage Time - Sample (Fungus)” value (fungus; Ginger, 1 hr P-E, control 12 days) is reported as 37 days.
For `S=C=NCc1ccccc1` [benzyl isothiocyanate], the Curdling ([2]; raw cow milk and raw goat milk) was “delayed curdling”.
In the case of `OB(O)O` [boric acid], the Curdling of milk [2] is reported as “delayed curdling”.
With `CCCCN=C=S` [butyl isothiocyanate] the Curdling ([2]; raw cow milk and raw goat milk) was “delayed curdling” and the “Effectiveness in extending freshness” value (fungus) was “effective”.
In the case of `CCCCB(O)O` [butylboronic acid], the Curdling of milk [2] is reported as “delayed curdling”, the Curdling ([2]; raw cow milk and raw goat milk) is reported as “delayed curdling” and the “Effectiveness in extending freshness” value (fungus) is reported as “effective”. For the same molecule, the “Shelf-life of raw milk yogurt” value (fungus; raw milk yogurt) was “extended shelf-life”.
With `O=c1ccc2ccccc2o1` [coumarin] the “Effectiveness for controlling one or more spoilage criteria” value [1] was “effective to a greater or lesser extent”.
With `COC(=O)CC(=O)OC` [dimethyl malonate] the “Effectiveness for controlling one or more spoilage criteria” value [1] was “effective to a greater or lesser extent”.
With `S` [hydrogen sulfide, Hydrogen sulfide] the Fungus growth (fungus; Example 159, snow peas, Himalayan salt sachet, control 6 days) was > 11 days, the “Spoilage Time - Sample (Fungus)” value (fungus; Snow peas, Sachet, control 6 days (Example 159)) was 11 days and the “Spoilage Time - Sample (Fungus)” value (fungus; Snow peas, Sachet, control 11 days (Example 160)) was 15 days.
With `COC(=O)C1CCCC1=O` (centres unmarked) [methyl cyclopentanone-2-carboxylate] the “Effectiveness for controlling one or more spoilage criteria” value [1] was “effective to a greater or lesser extent”.
In the case of `Cc1ccc(N=C=S)cc1` [p-tolyl isothiocyanate], the Curdling ([2]; raw cow milk and raw goat milk) is reported as “delayed curdling”.
In the case of `Oc1cccc(O)c1` [resorcinol], the “Effectiveness for controlling one or more spoilage criteria” value [1] is reported as “effective to a greater or lesser extent”.
